According to US7514106B2, “Compositions and methods for uterine relaxing” (Yangsen Biotechnology Co., Ltd., priority 2006, dated 2009):

Tests used:
[1] = test system: PGF2a-stimulated rat uterine muscle contraction; assay: Inhibition of PGF2a-stimulated rat uterine muscle strip contraction (organ bath); format: cell-based; conditions: 20 μg/ml compound pretreatment for 10 min before PGF2a (1 μM)
Experimental: (§1) Uterine relaxing activities on OTC- and KCl-stimulated rat uterine muscle contraction were carried out according to the method described by Ostad S N, Soodi M, Shariffzadeh M, Khorshidi N, and Marzban H. (The effect of fennel essential oil on uterine contraction as a model for dysmenorrhea, pharmacology and toxicology study. Journal of Ethnopharmacology 2001; 76: 299-304.). Female virgin Sprague-Dawley rats (200 g to 300 g) were obtained from the Laboratory Animal Center at Yang-Ming University. They were primed with 5 mg/kg of estradiol (Sigma-Aldrich) 24 hours before the experiments, and then sacrificed by CO2 asphyxiation. Uterine strips free from adhering tissues were mounted under a resting tension of 1 g in a 10 ml organ bath containing dejalon solution gassed with carbogen (95% O2 and 5% CO2) at 31° C., which were then allowed to equilibrate for at least 1 hour. To evaluate the effect on the contractile response induced by PGF2a, a modified Locke-Ringer solution and a maintained temperature of 28° C. were used according to the method described by Murata. P, Hayakawa T, Satoh K, Kase Y, Ishige A, and Sasaki H. (Effects of Dai-kenchu-to, a herbal medicine, on uterine and intestinal motility. Phytotherapy Research 2001; 15: 302-6). Contractions were recorded by force displacements transducers (Grass Instruments USA) using MP100 workstation software (Biopac Systems USA) on a PC. […]

[2] = test system: KCl-stimulated rat uterine muscle contraction; assay: Inhibition of KCl-stimulated rat uterine muscle strip contraction (organ bath); format: cell-based; conditions: 20 μg/ml compound pretreatment for 10 min before KCl (60 mM)
Experimental: as §1

SMILES	inhibition of muscle contraction [1]	inhibition at 20 µg/mL [2] [%]
C=CC(C)(O)CCC=C(C)C (stereo not shown) [linalool]	didn't show obvious inhibition	27 to 46
Cc1ccc(C(C)C)c(O)c1 [thymol]	didn't show obvious inhibition	27 to 46
